Assays:
Dopamine D3 = molecular target: T1, Dopamine D3 (Homo sapiens, UniProt P35462); assay: GTPγ[35S] assay, Dopamine D3; type: biochemical; conditions: agonism, CHO-K1 membranes
T1 construct: expressed in transfected cells; host or cells: CHO-K1 (membrane extracts)
Description: (§1) Receptor […] activity assays were performed using 8′OH-2-CF3-dihydroergotamine (8′OH-2-CF3-DHE). Table 1 summarizes the cell lines (CHO-K1/HEK293 transfected with relevant human receptor) and the assays performed to detect any agonist or antagonist activity.
(§2) GTPγS studies were conducted to monitor agonist activity for 8′OH-2CF3-dihydroergotamine (8′OH-2CF3-DHE) against the receptors indicated in Table 1 above. Reagents used were the following: Assay buffer (20 mM HEPES, pH 7.4; 100 mM NaCl; 10 μg/mL saponin; 30 mM MgCl2); Membranes (recombinant human receptor membrane extracts were thawed on ice and diluted in assay buffer to give 1000 μg/mL ([…]) and kept on ice); GDP (diluted in assay buffer to give 30 μM solution (3 μM final concentration); beads (PVT-WGA (Amersham, RPNQ001), diluted in assay buffer at 25 mg/mL (0.25 mg/10 μL)); GTPγ^35S (Perkin Elmer, NEG030X), diluted in assay buffer to give 0.1 nM (final concentration); and ligand (agonist/antagonist diluted in assay buffer).
(§3) Membranes were mixed with GDP (1:1) and incubated for at least 15 minutes on ice. In parallel GTPγ^35S was mixed with the beads (1:1) just before starting the reaction. […] The plates were then centrifuged for 10 minutes at 2000 rpm and incubated at room temperature for 1 hour and counted for 1 min/well with a Perkin Elmer TopCount reader.

Serotonin 5-HT2B = molecular target: T2, Serotonin 5-HT2B (Homo sapiens, UniProt P41595); assay: Aequorin assay, Serotonin 5-HT2B; type: cell-based; conditions: antagonism; CHO-K1 mAeq Gα16, Aequorin
T2 construct: expressed in transfected cells; host or cells: CHO-K1 mAeq Gα16
T2 sequence (P41595 whole entry): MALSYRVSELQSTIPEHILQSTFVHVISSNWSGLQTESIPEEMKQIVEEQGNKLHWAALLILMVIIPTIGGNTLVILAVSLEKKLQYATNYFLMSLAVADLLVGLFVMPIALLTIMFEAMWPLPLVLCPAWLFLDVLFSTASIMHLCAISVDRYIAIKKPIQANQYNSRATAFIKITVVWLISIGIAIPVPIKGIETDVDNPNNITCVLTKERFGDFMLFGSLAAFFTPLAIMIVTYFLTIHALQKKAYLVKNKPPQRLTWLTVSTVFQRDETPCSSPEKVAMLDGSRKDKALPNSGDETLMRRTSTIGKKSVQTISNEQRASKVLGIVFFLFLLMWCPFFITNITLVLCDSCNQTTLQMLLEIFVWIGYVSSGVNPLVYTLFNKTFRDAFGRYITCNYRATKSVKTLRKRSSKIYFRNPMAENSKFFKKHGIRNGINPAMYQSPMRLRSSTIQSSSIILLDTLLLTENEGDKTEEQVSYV
Description: as §1
(§4) Aequorin assays were conducted to monitor activity for 8′OH-2CF3-dihydroergotamine (8′OH-2CF3-DHE) against the receptors indicated in Table 1 above (except for mGlu3 and mGlu5). CHO-K1 cells coexpressing mitochondrial apoaequorin and the recombinant human receptor of interest were grown to mid-log phase in culture media without antibiotics and then detached with PBS-EDTA, centrifuged and resuspended in assay buffer (DMEM/HAM's F12 with HEPES, without phenol red+0.1% BSA, protease free) at a concentration of 1×10^6 cell/mL. […]
(§5) 50 μL of the cell suspension was mixed with 50 μL of test or reference agonist in a 96-well plate. The resulting emission of light was recorded using Hamamatsu Functional Drug Screening System 6000 (FDSS 6000) luminometer. […]
(§6) To standardize the emission of recorded light (and determine of the “100% signal”) across plates and across different experiments, some wells contained 100 μM digitonin or a saturating concentration of ATP (20 μM).

Serotonin 5-HT1A = molecular target: T3, Serotonin 5-HT1A (Homo sapiens, UniProt P08908); assay: GTPγ[35S] assay, Serotonin 5-HT1A; type: biochemical; conditions: agonism, CHO-K1 membranes
T3 construct: expressed in transfected cells; host or cells: CHO-K1 (membrane extracts)
T3 sequence (P08908 whole entry): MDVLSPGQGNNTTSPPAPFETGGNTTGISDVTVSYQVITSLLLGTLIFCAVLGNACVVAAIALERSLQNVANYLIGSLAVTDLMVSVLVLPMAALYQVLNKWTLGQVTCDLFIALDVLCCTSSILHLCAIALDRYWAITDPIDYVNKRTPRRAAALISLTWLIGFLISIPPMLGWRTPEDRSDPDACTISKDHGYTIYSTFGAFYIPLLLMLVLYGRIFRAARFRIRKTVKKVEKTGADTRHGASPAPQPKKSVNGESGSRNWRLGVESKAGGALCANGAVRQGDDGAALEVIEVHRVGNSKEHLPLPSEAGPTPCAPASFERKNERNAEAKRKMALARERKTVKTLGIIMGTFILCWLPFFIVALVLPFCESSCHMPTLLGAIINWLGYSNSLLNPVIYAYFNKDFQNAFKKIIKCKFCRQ
Description: as §1, §2, §3

Dopamine D1 = molecular target: T4, Dopamine D1 (Homo sapiens, UniProt P21728); assay: cAMP HTRF assay, Dopamine D1; type: cell-based; conditions: CHO-K1, cAMP
T4 construct: expressed in transfected cells; host or cells: CHO-K1
T4 sequence (P21728 whole entry): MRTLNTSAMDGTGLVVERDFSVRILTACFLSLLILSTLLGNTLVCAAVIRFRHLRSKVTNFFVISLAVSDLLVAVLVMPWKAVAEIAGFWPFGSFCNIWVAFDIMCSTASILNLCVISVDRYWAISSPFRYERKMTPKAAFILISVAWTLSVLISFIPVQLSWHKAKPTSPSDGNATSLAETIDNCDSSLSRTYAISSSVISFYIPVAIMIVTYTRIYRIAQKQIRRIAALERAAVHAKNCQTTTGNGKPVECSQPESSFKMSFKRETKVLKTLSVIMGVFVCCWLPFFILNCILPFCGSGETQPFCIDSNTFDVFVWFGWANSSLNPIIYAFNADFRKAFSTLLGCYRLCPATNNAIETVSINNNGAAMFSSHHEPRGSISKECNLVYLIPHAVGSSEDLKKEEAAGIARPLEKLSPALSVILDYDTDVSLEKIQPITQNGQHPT
Description: as §1
(§7) cAMP HTRF (Gs) studies were conducted to monitor activity for 8′OH-2CF3-dihydroergotamine (8′OH-2CF3-DHE) against the receptors indicated in Table 1 above. Cells expressing the human recombinant receptor of interest were grown in media without antibiotic and detached by gentle flushing with PBS-EDTA (5 mM EDTA), recovered by centrifugation and resuspended in assay buffer (KRH: 5 mM KCl, 1.25 mM MgSO4, 124 mM NaCl, 25 mM HEPES, 13.3 mM glucose, 1.25 mM KH2PO4, 1.45 mM CaCl2, 0.5 g/L BSA). Dose response curves were performed in parallel with the reference compounds. For agonist tests (96-well plates), 12 μL of cells was mixed with 12 μL of the test compound at increasing concentrations and then incubated for 30 minutes at room temperature. Lysis buffer was added and after a 1 hour incubation, cAMP concentrations was determined according to the manufacturer specification with the HTRF kit. […] Lysis buffer was added and after a 1 hour incubation, cAMP concentrations were determined according to the manufacturer specification, with the HTRF kit.

[1] = system: Purinergic (P2X1/P2X2/P2X3/P2X4/P2X7); assay: Purinergic receptor QPatch patch clamp study; type: cell-based, human; conditions: HEK293, QPatch HT, agonist and antagonist modes at 10 and 30 μM
Description: Purinergic receptor studies were conducted to monitor activity for 8′OH-2CF3-dihydroergotamine (8′OH-2CF3-DHE) against the P2X1, P2X2, P2X3, P2X4 and P2X7 receptors. Human recombinant purinergic receptor expressing HEK293 cells were used and receptor activity was evaluated at room temperature using QPatch HT® (Sophion Bioscience A/S, Denmark) automatic parallel patch clamp system. 8′OH-2CF3-DHE was evaluated in both agonist and antagonist modes at 10 and 30 μM. Each concentration was tested in triplicates.

Calcitonin (CGRP) = molecular target: T5, Calcitonin (CGRP) (Homo sapiens, UniProt O60894+Q16602); assay: Aequorin assay, CGRP receptor; type: cell-based; conditions: CHO-AEQ
T5 construct: expressed in transfected cells; host or cells: CHO-AEQ (CHO-K1 coexpressing mitochondrial apoaequorin)
T5 sequence (Q16602 23-461): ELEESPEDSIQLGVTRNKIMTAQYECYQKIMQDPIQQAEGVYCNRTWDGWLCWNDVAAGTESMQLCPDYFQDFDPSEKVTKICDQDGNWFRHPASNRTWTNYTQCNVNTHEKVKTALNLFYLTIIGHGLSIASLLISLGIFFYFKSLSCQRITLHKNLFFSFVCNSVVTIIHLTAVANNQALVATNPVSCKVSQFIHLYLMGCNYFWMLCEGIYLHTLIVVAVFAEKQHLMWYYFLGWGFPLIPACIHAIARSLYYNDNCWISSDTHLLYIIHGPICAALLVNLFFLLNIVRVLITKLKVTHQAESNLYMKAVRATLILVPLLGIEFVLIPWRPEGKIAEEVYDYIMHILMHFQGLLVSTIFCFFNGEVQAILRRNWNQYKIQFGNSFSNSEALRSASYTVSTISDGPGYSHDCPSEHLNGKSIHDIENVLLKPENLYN
T5 sequence (O60894 27-148 partner): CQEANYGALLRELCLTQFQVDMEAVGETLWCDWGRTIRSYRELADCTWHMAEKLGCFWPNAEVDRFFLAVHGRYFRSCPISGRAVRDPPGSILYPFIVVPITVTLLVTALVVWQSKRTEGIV
Description: as §1, §4, §5, §6

Calcitonin (AM1/AM2) = assay: cAMP HTRF assay, Calcitonin AM1/AM2; type: cell-based, human; conditions: CHO-K1, cAMP
Description: as §1, §7

CCK2 = molecular target: T6, CCK2 (Homo sapiens, UniProt P32239); assay: Aequorin assay, Cholecystokinin CCK2; type: cell-based; conditions: antagonism, CHO-AEQ
T6 construct: expressed in transfected cells; host or cells: CHO-AEQ
T6 sequence (P32239 whole entry): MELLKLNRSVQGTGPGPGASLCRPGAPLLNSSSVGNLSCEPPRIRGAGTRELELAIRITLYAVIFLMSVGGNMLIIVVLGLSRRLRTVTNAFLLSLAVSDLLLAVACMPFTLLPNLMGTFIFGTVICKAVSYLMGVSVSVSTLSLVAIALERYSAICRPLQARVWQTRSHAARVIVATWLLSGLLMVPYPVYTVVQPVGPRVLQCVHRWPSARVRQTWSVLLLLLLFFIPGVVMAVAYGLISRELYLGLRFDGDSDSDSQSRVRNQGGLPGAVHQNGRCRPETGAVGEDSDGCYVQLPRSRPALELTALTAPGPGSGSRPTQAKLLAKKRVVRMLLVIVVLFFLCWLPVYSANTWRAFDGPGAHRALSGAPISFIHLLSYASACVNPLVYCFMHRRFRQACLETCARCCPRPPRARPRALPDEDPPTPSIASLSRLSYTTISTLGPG
Description: as §1, §4, §5, §6

Adrenergic α1B = molecular target: T7, Adrenergic α1B (Homo sapiens, UniProt P35368); assay: Aequorin assay, Adrenergic α1B; type: cell-based; conditions: antagonism, CHO-K1 mAeq, read-out: Activity (Antagonism: IC50), Adrenergic a1B
T7 construct: expressed in transfected cells; host or cells: CHO-K1 mAeq
T7 sequence (P35368 whole entry): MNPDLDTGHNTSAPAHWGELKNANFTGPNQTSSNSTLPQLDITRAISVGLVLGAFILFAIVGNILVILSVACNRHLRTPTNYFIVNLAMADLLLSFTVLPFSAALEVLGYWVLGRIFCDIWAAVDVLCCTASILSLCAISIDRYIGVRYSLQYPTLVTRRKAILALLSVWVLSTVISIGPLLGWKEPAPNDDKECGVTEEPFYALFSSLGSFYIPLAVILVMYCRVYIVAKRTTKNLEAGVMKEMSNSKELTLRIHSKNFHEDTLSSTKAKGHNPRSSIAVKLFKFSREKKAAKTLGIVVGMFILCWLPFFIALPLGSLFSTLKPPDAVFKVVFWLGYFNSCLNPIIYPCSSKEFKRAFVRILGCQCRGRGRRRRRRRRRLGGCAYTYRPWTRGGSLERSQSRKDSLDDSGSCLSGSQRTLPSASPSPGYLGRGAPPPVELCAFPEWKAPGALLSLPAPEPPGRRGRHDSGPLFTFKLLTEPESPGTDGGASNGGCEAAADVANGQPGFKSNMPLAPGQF
Description: as §1, §4, §5, §6

T1 sequence (P35462 whole entry): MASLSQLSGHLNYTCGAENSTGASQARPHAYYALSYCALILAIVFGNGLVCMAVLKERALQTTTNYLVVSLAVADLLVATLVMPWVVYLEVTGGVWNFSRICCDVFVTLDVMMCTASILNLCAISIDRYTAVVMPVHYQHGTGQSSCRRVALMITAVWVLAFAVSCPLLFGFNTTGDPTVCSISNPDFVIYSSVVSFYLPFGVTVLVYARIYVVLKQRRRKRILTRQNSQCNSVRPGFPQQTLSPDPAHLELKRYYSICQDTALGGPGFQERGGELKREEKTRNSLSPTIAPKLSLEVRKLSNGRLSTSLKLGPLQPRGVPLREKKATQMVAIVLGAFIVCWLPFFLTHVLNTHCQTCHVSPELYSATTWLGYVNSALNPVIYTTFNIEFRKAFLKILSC

CN1C[C@H](C(=O)N[C@]2(C)O[C@@]3(O)[C@@H]4CC[C@@H](O)N4C(=O)[C@H](Cc4ccccc4)N3C2=O)C[C@@H]2c3cccc4[nH]c(C(F)(F)F)c(c34)C[C@H]21 [8′OH-2-CF3-DHE, 8′-Hydroxy-2-CF3-dihydroergotamine]
EC50 (Dopamine D3): 32.3 nM | IC50 (Serotonin 5-HT2B): 88.2 nM | EC50 (Serotonin 5-HT1A): 425 nM | Activity (Agonism: EC50; Antagonism: IC50), D1 (Dopamine D1): Inactive | Activity (Agonism: EC50; Antagonism: IC50), Purinergic (P2X1/P2X2/P2X3/P2X4/P2X7) [1]: Inactive | Activity (Agonism: EC50; Antagonism: IC50), Calcitonin (CGRP) (Calcitonin (CGRP)): Inactive | Activity (Agonism: EC50; Antagonism: IC50), Calcitonin (AM1/AM2) (Calcitonin (AM1/AM2)): Inactive | IC50 (CCK2): > 10000 nM | IC50 (Adrenergic α1B): 10.9 nM
